Measurements as given in patent US10266484B2, “Biodegradable lipids for the delivery of active agents” (ALNYLAM PHARMACEUTICALS, INC., priority 2010, dated 2019).

Assays:
[1] = Lipid concentration and pharmacokinetics in the spleen of mice after intravenous administration; type: in vivo; conditions: mouse, male C57BL mice, lipid dose 0.3 mg/kg; for MRT last: read-out: MRT0-t (mean residence time)
Description: (§1) A study was conducted to determine the lipid profile and tissue clearance in mice for cationic lipids according to the present invention.
(§2) Male mice (C57BL, 20-30 g) were separated into four groups and administered (intravenously) either Compound 1, 2 or 3 of the present invention, or a Reference Lipid, as shown below in Table 20.
(§3) The mice were not fasted. Blood, liver and spleen samples were collected (two samples per time point per group) at 0.17, 8, 24, 72, 168, 336 and 672 hours post dose.

[2] = Concentration of mono-acid and di-acid metabolites in the liver of mice; type: in vivo, mice (C57BL); conditions: 0.3 mg/kg intravenous
Description: as §2, §3
The concentration of these metabolites was measured in the liver. All measurements after 24 hours (including those taken at 72, 168, 336, and 672 hours post-administration) were below the level of quantification (BLQ).

[3] = Lipid concentration and pharmacokinetics in the liver of mice after intravenous administration; type: in vivo; conditions: mouse, male C57BL mice, lipid dose 0.3 mg/kg
Description: as §1, §2, §3

[4] = Study to determine lipid profiles and tissue clearance in mice (overall conclusion); type: in vivo, mice (C57BL); conditions: liver, spleen and plasma (FIGS. 1, 3, 4; Tables 22, 24, 26)
Description: as §1, §2, §3

[5] = Concentration of metabolites of compounds 1-3 in the plasma of mice; type: in vivo, mice (C57BL)
Description: as §2, §3
All measurements after 24 hours (including those taken at 72, 168, 336, and 672 hours post-administration) were below the level of quantification (BLQ).

[6] = Lipid concentration and pharmacokinetics in the plasma of mice after intravenous administration; type: in vivo; conditions: mouse, male C57BL mice, lipid dose 0.3 mg/kg
Description: as §1, §2, §3

[7] = Concentration of metabolites of compounds 1-3 in the spleen of mice; type: in vivo, mice (C57BL)
Description: as §2, §3

[8] = read-out: MRT0-t (mean residence time)

AUC [1]	Cmax [1]	MRT last [1]	Di-acid metabolite concentration ([2]; 24 hr post dose)	Mono-acid metabolite concentration ([2]; 24 hr post dose)	AUC [3]	Cmax [3]	Concentration of di-acid metabolite in the plasma ([5]; 24 hr post dose)	Concentration of mono-acid metabolite in the plasma ([5]; 24 hr post dose)	AUC [6]	Cmax [6]	Concentration of di-acid metabolite in the spleen ([7]; 24 hr post dose)	Concentration of di-acid metabolite in the spleen ([7]; 72 hr post dose)	Concentration of mono-acid metabolite in the spleen ([7]; 72 hr post dose)	Concentration of di-acid metabolite in the spleen ([7]; 168 hr post dose)	Concentration of mono-acid metabolite in the spleen ([7]; 168 hr post dose)	Concentration of mono-acid metabolite in the spleen ([7]; 336 hr post dose)	Concentration of di-acid metabolite in the spleen ([7]; 672 hr post dose)	Concentration of mono-acid metabolite in the spleen ([7]; 672 hr post dose)	Structure (SMILES)	Tissue clearance and activity compared to the Reference Lipid [4]	also measured
238 µg·h/mL	13600 ng/mL	11.1 h	BLQ	BLQ	0.436 µg·h/mL	118 ng/mL	BLQ	BLQ	116 µg·h/mL	28800 ng/mL	BLQ	BLQ	BLQ	BLQ	BLQ	BLQ	BLQ	BLQ	CCOC(=O)CCCC/C=C\CCCCCCCCC(CCCCCCCC/C=C\CCCCC(=O)OCC)OC(=O)CCCN(C)C [Compound 2]	dramatically improved tissue clearance and activity	Concentration of di-acid metabolite in the spleen ([7]; 336 hr post dose): BLQ
3430 µg·h/mL	9150 ng/mL	230 h	–	–	6950 µg·h/mL	22400 ng/mL	–	–	63.8 µg·h/mL	2110 ng/mL	–	–	–	–	–	–	–	–	CCCCC/C=C\C/C=C\CCCCCCCCOCC(CN(C)C)OCCCCCCCC/C=C\C/C=C\CCCCC (centres unmarked) [Reference Lipid, reference compound]	–	MRT last [3, 8]: 221 h; MRT last [6, 8]: 201 h
18.7 µg·h/mL	4370 ng/mL	0.7 h	BLQ	BLQ	–	208 ng/mL	–	BLQ	122 µg·h/mL	30600 ng/mL	–	–	BLQ	–	BLQ	BLQ	BLQ	BLQ	COC(=O)CCCCCCC/C=C\CCCCCCCCC(CCCCCCCC/C=C\CCCCCCCC(=O)OC)OC(=O)CCCN(C)C [Compound 3]	dramatically improved tissue clearance and activity	Di-acid metabolite concentration ([2]; 8 hr post dose): BLQ; Mono-acid metabolite concentration ([2]; 8 hr post dose): BLQ; Concentration of mono-acid metabolite in the plasma ([5]; 8 hr post dose): BLQ; Concentration of mono-acid metabolite in the spleen ([7]; 24 hr post dose): BLQ
42 µg·h/mL	7460 ng/mL	2.8 h	BLQ	BLQ	4.59 µg·h/mL	1140 ng/mL	BLQ	BLQ	155 µg·h/mL	38800 ng/mL	BLQ	BLQ	BLQ	BLQ	BLQ	BLQ	BLQ	BLQ	CCCCCC/C=C\COC(=O)CCCCCCCC(CCCCCCCC(=O)OC/C=C\CCCCCC)OC(=O)CCCN(C)C [Compound 1, di((Z)-non-2-en-1-yl) 9-((4-(dimethylamino)butanoyl)oxy)heptadecanedioate]	dramatically improved tissue clearance and activity	Concentration of di-acid metabolite in the plasma ([5]; 8 hr post dose): BLQ; Concentration of mono-acid metabolite in the plasma ([5]; 8 hr post dose): BLQ; Concentration of di-acid metabolite in the spleen ([7]; 8 hr post dose): BLQ; Concentration of mono-acid metabolite in the spleen ([7]; 24 hr post dose): BLQ; Concentration of di-acid metabolite in the spleen ([7]; 336 hr post dose): BLQ
